Measured values from PubChem BioAssay AID248 (DTP/NCI, 2004).
Several values for one entry are separate records, joined by “and”; a condition that tells them apart may be missing. Equal values may be shown once. Inconclusive results and toxic doses are left out. Rule as the data show it: active = T/C of 150% or more; inactive = T/C below 125%. Square brackets hold non-standard residues; d marks the D form. Peptide text beside a SMILES is read from it. * marks the point of attachment. Cbz = O=C(OCc1ccccc1)*; Abu = CC[CH](N)C(=O)O; OBn = c1ccc(CO*)cc1

System: L1210 leukemia ip in BDF1 mice, survival T/C
Experiment: NCI In Vivo Anticancer Drug Screen. Data for tumor model L1210 Leukemia (intraperitoneal) in B6D2F1 (BDF1) mice
Settings: endpoint: mean survival time, higher = longer survival
Outline: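 Read-out is survival time, reported as the treated-group measurement over the vehicle-control measurement.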

[1] = dose: 12.5 mg/kg/injection, schedule: Q04DX002 (ip), vehicle: Klucel (hydroxypropylcellulose) (HPC)
[2] = dose: 25.0 mg/kg/injection, schedule: Q04DX002 (ip), vehicle: Klucel (hydroxypropylcellulose) (HPC)
[3] = dose: 50.0 mg/kg/injection, schedule: Q04DX002 (ip), vehicle: Klucel (hydroxypropylcellulose) (HPC)
[4] = dose: 100.0 mg/kg/injection, schedule: Q01DX001 (ip), vehicle: saline
[5] = dose: 100.0 mg/kg/injection, schedule: Q01DX009 (ip), vehicle: acetone
[6] = dose: 100.0 mg/kg/injection, schedule: Q04DX003 (ip), vehicle: saline
[7] = dose: 200.0 mg/kg/injection, schedule: Q01DX001 (ip), vehicle: saline
[8] = dose: 200.0 mg/kg/injection, schedule: Q01DX009 (ip), vehicle: acetone
[9] = dose: 200.0 mg/kg/injection, schedule: Q04DX003 (ip), vehicle: saline
[10] = dose: 400.0 mg/kg/injection, schedule: Q01DX001 (ip), vehicle: saline
[11] = dose: 400.0 mg/kg/injection, schedule: Q04DX003 (ip), vehicle: saline
[12] = dose: 100.0 mg/kg/injection, schedule: Q01DX009 (ip), vehicle: Klucel (hydroxypropylcellulose) (HPC)
[13] = dose: 200.0 mg/kg/injection, schedule: Q01DX009 (ip), vehicle: Klucel (hydroxypropylcellulose) (HPC)
[14] = dose: 400.0 mg/kg/injection, schedule: Q01DX009 (ip), vehicle: Klucel (hydroxypropylcellulose) (HPC)
[15] = dose: 100.0 mg/kg/injection, schedule: Q01DX001 (ip), vehicle: saline with Tween-80
[16] = dose: 50.0 mg/kg/injection, schedule: Q01DX009 (ip), vehicle: Klucel (hydroxypropylcellulose) (HPC)

Measured: T/C

CC(=O)[C@@]1(O)CC[C@H]2[C@@H]3C[C@H](C)C4=CC(=O)CC[C@]4(C)[C@H]3[C@@H](O)C[C@@]21C
inactive: [1] 102 % of control | [2] 105 % of control | [3] 112 % of control | [4] 104 % of control | [5] 97 % of control | [6] 104 % of control | [7] 100 % of control | [8] 92 % of control | [9] 102 % of control | [10] 91 % of control | dose: 400.0 mg/kg/injection, schedule: Q01DX009 (ip), vehicle: acetone 97 % of control | [11] 95 % of control

CSc1nc(N)nc2c1ncn2C1OC(CO)CC1O (stereo unspecified)
inactive: [4] 107 % of control | [7] 104 % of control | [10] 115 % of control

Cc1cc(N=Nc2ccccc2)c2cccnc2c1N
inactive: dose: 50.0 mg/kg/injection, schedule: Q04DX003 (ip), vehicle: DMSO 91 % of control | dose: 100.0 mg/kg/injection, schedule: Q04DX003 (ip), vehicle: DMSO 97 % of control

CC1=CC(C)(C)NC(=S)N1c1ccc(O)cc1
inactive: dose: 75.0 mg/kg/injection, schedule: Q01DX009 (ip), vehicle: saline with Tween-80 92 % of control | dose: 150.0 mg/kg/injection, schedule: Q01DX009 (ip), vehicle: saline with Tween-80 101 % of control | dose: 300.0 mg/kg/injection, schedule: Q01DX009 (ip), vehicle: saline with Tween-80 90 % of control

Nc1nc2nc(-c3ccc([N+](=O)[O-])cc3)nc(N)c2nc1-c1ccc(N(CCCl)CCCl)cc1
inactive: [4] 96 % of control | [7] 95 % of control | [10] 101 % of control

CCC(NC(=O)OCc1ccccc1)C(=O)NC(Cc1ccc(O)cc1)C(=O)OCc1ccccc1 (stereo unspecified) (Cbz-[Abu]-Tyr-OBn; configuration not given here)
inactive: [12] 102 % of control | [13] 91 % of control | [14] 99 % of control

CN(CC(O)CN)c1ccc(Cl)cc1 (stereo unspecified)
inactive: dose: 25.0 mg/kg/injection, schedule: Q01DX001 (ip), vehicle: saline with Tween-80 104 % of control | dose: 50.0 mg/kg/injection, schedule: Q01DX001 (ip), vehicle: saline with Tween-80 101 % of control | [15] 100 % of control and 103 % of control

CCOc1nc(N)nc2n[nH]nc12
inactive: dose: 82.0 mg/kg/injection, schedule: Q01DX Z (ip), vehicle: carboxymethylcellulose (CMC) 93 % of control | dose: 175.0 mg/kg/injection, schedule: Q01DX Z (ip), vehicle: carboxymethylcellulose (CMC) 112 % of control | dose: 262.0 mg/kg/injection, schedule: Q01DX Z (ip), vehicle: carboxymethylcellulose (CMC) 95 % of control

COc1cc(/C=C2\CN(C)C(=O)C2=O)ccc1O
inactive: dose: 100.0 mg/kg/injection, schedule: Q01DX009 (ip), vehicle: saline with Tween-80 101 % of control | dose: 100.0 mg/kg/injection, schedule: Q04DX003 (ip), vehicle: saline with Tween-80 105 % of control | dose: 200.0 mg/kg/injection, schedule: Q01DX009 (ip), vehicle: saline with Tween-80 100 % of control | dose: 200.0 mg/kg/injection, schedule: Q04DX003 (ip), vehicle: saline with Tween-80 98 % of control | dose: 400.0 mg/kg/injection, schedule: Q01DX009 (ip), vehicle: saline with Tween-80 101 % of control | dose: 400.0 mg/kg/injection, schedule: Q04DX003 (ip), vehicle: saline with Tween-80 96 % of control

Clc1ccc(/C=N/Nc2nc3ccccc3s2)cc1Cl
inactive: dose: 40.0 mg/kg/injection, schedule: Q01DX Z (ip), vehicle: methylcellulose (MC) 88 % of control | dose: 60.0 mg/kg/injection, schedule: Q01DX Z (ip), vehicle: methylcellulose (MC) 103 % of control | dose: 90.0 mg/kg/injection, schedule: Q01DX Z (ip), vehicle: methylcellulose (MC) 94 % of control

NNc1nc(Cl)nc(C(Cl)(Cl)Cl)c1Cl (tested in a mixture with another compound)
inactive: [16] 87 % of control | [12] 87 % of control | [13] 89 % of control

CC(C)c1ccc(/C=C2\N=C(c3ccc([N+](=O)[O-])cc3)OC2=O)cc1
inactive: [12] 100 % of control | [13] 100 % of control | [14] 98 % of control

O=S1(=O)CC(Br)C1
inactive: [1] 86 % of control | dose: 25.0 mg/kg/injection, schedule: Q01DX009 (ip), vehicle: Klucel (hydroxypropylcellulose) (HPC) 96 % of control | [2] 93 % of control | [16] 96 % of control | [3] 109 % of control

[O]=[Sn]([OH])[OH]
inactive: dose: 100.0 mg/kg/injection, schedule: Q01DX009 (ip), vehicle: saline 97 % of control | dose: 200.0 mg/kg/injection, schedule: Q01DX009 (ip), vehicle: saline 94 % of control

CC(C)N=C(NC(C)C)c1ccc(NC(=O)Nc2ccc(NC(=O)Nc3ccc(C(=NC(C)C)NC(C)C)cc3)cc2)cc1
inactive: dose: 1.88 mg/kg/injection, schedule: Q01DX Z (ip), vehicle: carboxymethylcellulose (CMC) 101 % of control | dose: 3.75 mg/kg/injection, schedule: Q01DX Z (ip), vehicle: carboxymethylcellulose (CMC) 102 % of control | dose: 7.5 mg/kg/injection, schedule: Q01DX Z (ip), vehicle: carboxymethylcellulose (CMC) 116 % of control | dose: 15.0 mg/kg/injection, schedule: Q01DX Z (ip), vehicle: carboxymethylcellulose (CMC) 102 % of control

COc1ncnc(=O)[nH]1
inactive: [4] 97 % of control | [7] 98 % of control | [10] 97 % of control

CC1(C)/C(=C\C(=O)O)C2C=CC1C2 (stereo unspecified)
inactive: [4] 94 % of control | [5] 86 % of control | [6] 114 % of control | [7] 101 % of control | [8] 91 % of control | [9] 106 % of control | [10] 100 % of control | [11] 102 % of control

O=C(Cc1ccccn1)c1ccccc1
inactive: dose: 100.0 mg/kg/injection, schedule: Q04DX003 (ip), vehicle: Klucel (hydroxypropylcellulose) (HPC) 96 % of control | dose: 200.0 mg/kg/injection, schedule: Q04DX003 (ip), vehicle: Klucel (hydroxypropylcellulose) (HPC) 96 % of control | dose: 400.0 mg/kg/injection, schedule: Q04DX003 (ip), vehicle: Klucel (hydroxypropylcellulose) (HPC) 92 % of control

COC(=O)C(C)C(C)=O (stereo unspecified)
inactive: dose: 100.0 mg/kg/injection, schedule: Q01DX009 (sc), vehicle: olive oil, sesame oil, peanut oil 106 % of control | dose: 100.0 mg/kg/injection, schedule: Q04DX003 (sc), vehicle: olive oil, sesame oil, peanut oil 98 % of control | dose: 200.0 mg/kg/injection, schedule: Q01DX009 (sc), vehicle: olive oil, sesame oil, peanut oil 107 % of control | dose: 200.0 mg/kg/injection, schedule: Q04DX003 (sc), vehicle: olive oil, sesame oil, peanut oil 101 % of control | dose: 400.0 mg/kg/injection, schedule: Q01DX009 (sc), vehicle: olive oil, sesame oil, peanut oil 106 % of control | dose: 400.0 mg/kg/injection, schedule: Q04DX003 (sc), vehicle: olive oil, sesame oil, peanut oil 98 % of control

Nc1nc(N)c(-c2ccc(Cl)c(Cl)c2)c(/C=C/c2ccc(S(=O)(=O)F)cc2)n1
inactive: [15] 87 % of control | dose: 200.0 mg/kg/injection, schedule: Q01DX001 (ip), vehicle: saline with Tween-80 91 % of control | dose: 400.0 mg/kg/injection, schedule: Q01DX001 (ip), vehicle: saline with Tween-80 87 % of control
